Test [1] relates to male KK-A^y mice. Description: Hypoglycemic action (method A). It counts as in vivo, mouse. Conditions: 4 consecutive days, non-fasting, about 24 hours after final administration, vs control group. On the procedure: (§1) The glucose level in the plasma was measured using a commercially available assay kit (glucose CII-test WAKO, Wako Pure Chemical Industries, Ltd.). The mice were grouped (5 mice per group) into a control group and an administration group, such that the mean and the standard deviation of the glucose level in the plasma of each group were nearly the same. Each test compound was suspended or dissolved in 5% gum arabic solution and administered orally to the administration group for 4 consecutive days from the next day. The 5% gum arabic solution was orally administered to the control group. Blood was drawn from the tail vein under a non-fasting state about 24 hours after the final administration and the glucose level in the plasma was measured. The decrease in the plasma glucose level was calculated from the following formula.
Decrease (%) in plasma glucose level=[(mean plasma glucose level of control group−mean plasma glucose level of test compound administration group)/mean plasma glucose level of control group]×100

Test [2] deals with male KK-A^y mice. Description: Hypotriglyceridemic action. The class given is in vivo, mouse. Conditions: 4 consecutive days, non-fasting, about 24 hours after final administration, vs control group. The method, then:
as §1, with “triglyceride” for “glucose”, “(triglyceride G-test” for “(glucose CII-test”
Decrease (%) in plasma triglyceride level=[(mean plasma triglyceride level of control group−mean plasma triglyceride level of test compound administration group)/mean plasma triglyceride level of control group]×100

The text below walks through data of US6589963B2, “Heterocyclic compounds and salts thereof and medicinal use of the same” (Kyoto Pharmaceutical Industries, Ltd., priority 1999, dated 2003).

Consider “7-[2-(5-Methyl-2-phenyloxazol-4-yl)ethoxy]-2-(4-pentenoyl)-1,2,3,4-tetrahydroisoquinoline-(3S)-carboxylic acid [Example 44]”, for which the “Decrease (%) in plasma glucose level” value with male KK-A^y mice [1] (dose 30 mg/kg orally) came to 48.0%. The “Decrease (%) in plasma triglyceride level” value with male KK-A^y mice [2] (dose 30 mg/kg orally) is 19.1%.

As to `Cc1oc(-c2ccccc2)nc1CCOc1ccc2c(c1)CC(C(=O)O)N(Cc1ccccc1)C2` (racemic) [Example 72, 2-Benzyl-6-[2-(5-methyl-2-phenyloxazol-4-yl)ethoxy]-1,2,3,4-tetrahydroisoquinoline-(3RS)-carboxylic acid], in the test with male KK-A^y mice [1] (dose 30 mg/kg orally), the “Decrease (%) in plasma glucose level” value was determined as 15.9%. Also, in the test with male KK-A^y mice [2] (dose 30 mg/kg orally), the “Decrease (%) in plasma triglyceride level” value stood at 24.0%.

Take `CC(=O)N1Cc2cc(OCCc3nc(-c4ccccc4)oc3C)ccc2C[C@H]1C(=O)O` [Example 3, 2-Acetyl-7-[2-(5-methyl-2-phenyloxazol-4-yl)ethoxy]-1,2,3,4-tetrahydroisoquinoline-(3S)-carboxylic acid]: the “Decrease (%) in plasma glucose level” value in the test with male KK-A^y mice [1] (dose 30 mg/kg orally) turned out to be 11.8%.

`Cc1oc(-c2ccccc2)nc1CCOc1ccc2c(c1)CN(C)[C@H](C(=O)O)C2` [Example 4, 2-Methyl-7-[2-(5-methyl-2-phenyloxazol-4-yl)ethoxy]-1,2,3,4-tetrahydroisoquinoline-(3S)-carboxylic acid]: in the test on male KK-A^y mice [2] (dose 10 mg/kg orally), the “Decrease (%) in plasma triglyceride level” value stood at 14.3%.

Consider `CCCCCCN1Cc2cc(OCCc3nc(-c4ccccc4)oc3C)ccc2C[C@H]1C(=O)O` [Example 6], for which the results for the “Decrease (%) in plasma glucose level” value in the test with male KK-A^y mice [1] (dose 10 mg/kg orally) and in the test with male KK-A^y mice [1] (dose 30 mg/kg orally) were 10.7% and 12.2%, respectively.

For the molecule `Cc1oc(-c2ccccc2)nc1CCOc1ccc2c(c1)CN(CC(C)C)[C@H](C(=O)O)C2` [Example 7, 2-Isobutyl-7-[2-(5-methyl-2-phenyloxazol-4-yl)ethoxy]-1,2,3,4-tetrahydroisoquinoline-(3S)-carboxylic acid], the “Decrease (%) in plasma glucose level” value in the test with male KK-A^y mice [1] (dose 10 mg/kg orally) turned out to be 11.4%; with male KK-A^y mice [1] (dose 30 mg/kg orally) it was 17.4%.

As to `Cc1oc(-c2ccccc2)nc1CCOc1ccc2c(c1)CN(CCCc1ccccc1)[C@H](C(=O)O)C2` [Example 9, 7-[2-(5-Methyl-2-phenyloxazol-4-yl)ethoxy]-2-(3-phenylpropyl)-1,2,3,4-tetrahydroisoquinoline-(3S)-carboxylic acid], the “Decrease (%) in plasma glucose level” value with male KK-A^y mice [1] (dose 30 mg/kg orally) is 20.3%.

On to `CN(CCOc1ccc2c(c1)CN(Cc1ccccc1)[C@H](C(=O)[O-])C2)c1ccccn1.[Na+]` [Example 11, Sodium 2-benzyl-7-[2-(N-methyl-N-(pyridin-2-yl)amino)ethoxy]-1,2,3,4-tetrahydroisoquinoline-(3S)-carboxylate], for which, in the test with male KK-A^y mice [2] (dose 10 mg/kg orally), the “Decrease (%) in plasma triglyceride level” value worked out at 11.2%.

On to `CCc1ccc(CCOc2ccc3c(c2)CN(Cc2ccccc2)[C@H](C(=O)[O-])C3)nc1.[Na+]` [Example 12, Sodium 2-benzyl-7-[2-(5-ethyl-pyridin-2-yl)ethoxy]1,2,3,4-tetrahydroisoquinoline-(3S)-carboxylate], for which, in the test with male KK-A^y mice [1] (dose 10 mg/kg orally), the “Decrease (%) in plasma glucose level” value came to 12.0%. In the test with male KK-A^y mice [2] (dose 10 mg/kg orally), the “Decrease (%) in plasma triglyceride level” value was determined as 22.9%.

Consider `Cc1ccc(CN2Cc3cc(OCCc4nc(-c5ccccc5)oc4C)ccc3C[C@H]2C(=O)O)cc1` [Example 18, 2-(4-Methylbenzyl)-7-[2-(5-methyl-2-phenyloxazol-4-yl)ethoxy]-1,2,3,4-tetrahydroisoquinoline-(3S)-carboxylic acid], for which, in the test on male KK-A^y mice [1] (dose 30 mg/kg orally), the “Decrease (%) in plasma glucose level” value was determined as 39.7%. Also, the “Decrease (%) in plasma triglyceride level” value in the test on male KK-A^y mice [2] (dose 30 mg/kg orally) was found to be 45.5%.

In the case of `Cc1oc(C(C)C)nc1CCOc1ccc2c(c1)CN(Cc1ccccc1)[C@H](C(=O)O)C2` [Example 34, 2-Benzyl-7-[2-(5-methyl-2-isopropyloxazol-4-yl)ethoxy]-1,2,3,4-tetrahydroisoquinoline-(3S)-carboxylic acid], the “Decrease (%) in plasma glucose level” value in the test on male KK-A^y mice [1] (dose 30 mg/kg orally) turned out to be 23.5%. In addition, the “Decrease (%) in plasma triglyceride level” value in the test with male KK-A^y mice [2] (dose 30 mg/kg orally) turned out to be 17.3%.

On to `CCCCN1Cc2cc(OCCc3nc(-c4ccccc4)oc3C)ccc2C[C@H]1C(=O)O` [Example 35, 2-Butyl-7-[2-(5-methyl-2-phenyloxazol-4-yl)ethoxy]-1,2,3,4-tetrahydroisoquinoline-(3S)-carboxylic acid], for which the “Decrease (%) in plasma glucose level” value in the test with male KK-A^y mice [1] (dose 30 mg/kg orally) was 22.1%. The “Decrease (%) in plasma triglyceride level” value with male KK-A^y mice [2] (dose 30 mg/kg orally) stood at 12.4%.

Regarding `CC(C)=Cc1nc(CCOc2ccc3c(c2)CN(Cc2ccccc2)[C@H](C(=O)O)C3)c(C)o1` [Example 36, 2-Benzyl-7-{2-[5-methyl-2-(2-methylpropenyl)oxazol-4-yl]ethoxy}-1,2,3,4-tetrahydroisoquinoline-(3S)-carboxylic acid], the “Decrease (%) in plasma glucose level” value in the test on male KK-A^y mice [1] (dose 30 mg/kg orally) turned out to be 28.4%. Moreover, the “Decrease (%) in plasma triglyceride level” value in the test on male KK-A^y mice [2] (dose 30 mg/kg orally) worked out at 13.7%.

Take `C=CCN1Cc2cc(OCCc3nc(-c4ccccc4)oc3C)ccc2C[C@H]1C(=O)O` [Example 38, 2-Allyl-7-[2-(5-methyl-2-phenyloxazol-4-yl)ethoxy]-1,2,3,4-tetrahydroisoquinoline-(3S)-carboxylic acid]: the “Decrease (%) in plasma glucose level” value in the test with male KK-A^y mice [1] (dose 30 mg/kg orally) is given as 28.0%. In addition, the “Decrease (%) in plasma triglyceride level” value in the test on male KK-A^y mice [2] (dose 30 mg/kg orally) stood at 30.0%.

Regarding `O=C(O)[C@@H]1Cc2ccc(OCCC3CNc4ccccc43)cc2CN1Cc1ccccc1` (stereo partly drawn) [Example 41, 2-Benzyl-7-[(indolin-3-yl)ethoxy]-1,2,3,4-tetrahydroisoquinoline-(3S)-carboxylic acid], the “Decrease (%) in plasma glucose level” value with male KK-A^y mice [1] (dose 30 mg/kg orally) stood at 11.1%.

Regarding `CC(C)=CC(=O)N1Cc2cc(OCCc3nc(-c4ccccc4)oc3C)ccc2C[C@H]1C(=O)O` [Example 45, 2-(3-Methyl-2-butenoyl)-7-[2-(5-methyl-2-phenyloxazol-4-yl)ethoxy]-1,2,3,4-tetrahydroisoquinoline-(3S)-carboxylic acid], the “Decrease (%) in plasma glucose level” value in the test with male KK-A^y mice [1] (dose 30 mg/kg orally) came out at 12.6%.

As to `Cc1oc(-c2ccccc2)nc1CCOc1ccc2c(c1)CN(C(=O)CC(C)(C)C)[C@H](C(=O)O)C2` [Example 46, 2-(3,3-Dimethylbutyryl)-7-[2-(5-methyl-2-phenyloxazol-4-yl)ethoxy]-1,2,3,4-tetrahydroisoquinoline-(3S)-carboxylic acid], in the test with male KK-A^y mice [1] (dose 30 mg/kg orally), the “Decrease (%) in plasma glucose level” value stood at 28.6%.

As to `Cc1oc(-c2ccccc2)nc1CCOc1ccc2c(c1)CN(Cc1ccccn1)[C@H](C(=O)[O-])C2.[Na+]` [Example 48, Sodium 7-[2-(5-methyl-2-phenyloxazol-4-yl)ethoxy]-2-(pyridin-2-ylmethyl)-1,2,3,4-tetrahydroisoquinoline-(3S)-carboxylate], the “Decrease (%) in plasma glucose level” value in the test with male KK-A^y mice [1] (dose 30 mg/kg orally) worked out at 16.1%.

For `CC(C)(C)c1nc2cc(COc3ccc4c(c3)CN(Cc3ccccc3)[C@H](C(=O)O)C4)ccc2o1` [Example 53, 2-Benzyl-7-(2-tert-butylbenzoxazol-5-yl)methoxy-1,2,3,4-tetrahydroisoquinoline-(3S)-carboxylic acid], the “Decrease (%) in plasma glucose level” value in the test with male KK-A^y mice [1] (dose 30 mg/kg orally) is 13.6%.

Consider `CC(C)(C)CN1Cc2cc(OCc3ccc4nc(C(C)(C)C)oc4c3)ccc2C[C@H]1C(=O)O` [Example 54, 7-(2-tert-Butylbenzoxazol-6-yl)methoxy-2-(2,2-dimethylpropyl)-1,2,3,4-tetrahydroisoquinoline-(3S)-carboxylic acid], for which the “Decrease (%) in plasma glucose level” value in the test on male KK-A^y mice [1] (dose 30 mg/kg orally) is on record as 10.8%.

Turning to `CC(C)c1nc2cc(COc3ccc4c(c3)CN(Cc3ccccc3)[C@H](C(=O)O)C4)ccc2o1` [Example 55, 2-Benzyl-7-(2-isopropylbenzoxazol-5-yl)methoxy-1,2,3,4-tetrahydroisoquinoline-(3S)-carboxylic acid], the “Decrease (%) in plasma glucose level” value with male KK-A^y mice [1] (dose 30 mg/kg orally) is 13.9%.

Regarding `Cc1oc(-c2ccccc2)nc1CCOc1ccc2c(c1)CN(Cc1ccncc1)[C@H](C(=O)[O-])C2.[Na+]` [Example 56, Sodium 7-[2-(5-methyl-2-phenyloxazol-4-yl)ethoxy]-2-(pyridin-4-ylmethyl)-1,2,3,4-tetrahydroisoquinoline-(3S)-carboxylate], the “Decrease (%) in plasma triglyceride level” value with male KK-A^y mice [2] (dose 30 mg/kg orally) was found to be 14.0%.

Take `Cc1oc(C2CC2)nc1CCOc1ccc2c(c1)CN(Cc1ccccc1)[C@H](C(=O)O)C2` [Example 59, 2-Benzyl-7-[2-(2-cyclopropyl-5-methyloxazol-4-yl)ethoxy]-1,2,3,4-tetrahydroisoquinoline-(3S)-carboxylic acid]: the “Decrease (%) in plasma triglyceride level” value in the test with male KK-A^y mice [2] (dose 30 mg/kg orally) is given as 13.7%.

As for `O=C(O)[C@@H]1Cc2ccc(OCCc3cc4ccccc4o3)cc2CN1Cc1ccccc1` [Example 67, 7-[2-(Benzofran-2-yl)ethoxy]-2-benzyl-1,2,3,4-tetrahydroisoquinoline-(3S)-carboxylic acid], in the test on male KK-A^y mice [1] (dose 30 mg/kg orally), the “Decrease (%) in plasma glucose level” value was determined as 10.6%.

Regarding `COC(=O)CCC(=O)N1Cc2cc(OCCc3nc(-c4ccccc4)oc3C)ccc2C[C@H]1C(=O)O` [Example 70, 2-[3-(Methoxycarbonyl)propionyl]-7-[2-(5-methyl-2-phenyloxazol-4-yl)ethoxy]-1,2,3,4-tetrahydroisoquinoline-(3S)-carboxylic acid], the “Decrease (%) in plasma glucose level” value in the test with male KK-A^y mice [1] (dose 30 mg/kg orally) is given as 15.2%.

Regarding `CCOC(=O)CCCN1Cc2cc(OCCc3nc(-c4ccccc4)oc3C)ccc2C[C@H]1C(=O)O` [Example 71, 2-[3-(Ethoxycarbonyl)propyl]-7-[2-(5-methyl-2-phenyloxazol-4-yl)ethoxy]-1,2,3,4-tetrahydroisoquinoline-(3S)-carboxylic acid], the “Decrease (%) in plasma glucose level” value in the test on male KK-A^y mice [1] (dose 30 mg/kg orally) is recorded as 10.5%.
